The text below walks through data of patent US20240010659A1, “NEW THIADIAZOLOPYRIMIDONE DERIVATIVES” (Hoffmann-La Roche Inc., priority 2021, published 2024).

Molecules are shown by their SMILES.

The experiment has as its system mutant HTT protein (mHTT). In words: Homogeneous Time Resolved Fluorescence (HTRF) assay for HTT lowering in GENEAe020-A cells. Type of experiment: cell-based. The settings on record: reduction of mHTT in Huntington patient human cells (GENEAe020-A cell line), 48 hours incubation, mean from three replicates. As to the method:
Homogeneous Time Resolved Fluorescence for HTT Lowering
The HTRF assay was adapted from Weiss et al. (Analytical Biochemistry Volume 395, Issue 1, 1 Dec. 2009, Pages 8-15 and Analytical Biochemistry Volume 410, 2011, Pages 304-306) to cells from GENEAe020-A cell line (https://hpscreg.eu/cell-line/GENEAe020-A).
Compounds were tested for the effect of mutant HTT levels in Huntington patient human cells (GENEAe020-A cell line) using Homogeneous Time Resolved Fluorescence (HTRF) directed towards mutant HTT protein (mHTT). The GENEAe020-A cell line was derived by Genea Biocells from human blastocysts of HD donors. After assessing viability, cells were plated into 384 well collagen coated plates in growth media. Once cells adhered, media was removed and test compounds dissolved in DMSO were diluted with buffer solution and added to the adherent cells. Controls included experiments with no cells, DMSO with no compound, and Hsp90 inhibitor control. Cells were incubated with compounds and controls for 48 hours. Then, the cells were lysed and transferred to an assay plate containing HTRF labeled monoclonal antibodies developed by Paul Patterson (Ko et al., Brain Research Bulletin, Volume 56, Numbers 3 and 4, 2001, Pages 319-329) which recognize specific areas of the HTT protein. The terbium labeled “donor” antibody (2B7) binds to the N-terminus of the HTT protein and the Alexa488 labeled “acceptor” antibody (MW1) is specific for the polyglutamine region of the protein. Binding of the acceptor labeled antibody is more efficient for the extended polyglutamine repeats of mutant HTT protein which translates into a signal boost which enables the specific measurement of mutant HTT protein level. The HTRF donor and acceptor detection reagents were incubated with the cell lysate and the ratio between the signals of the two fluorophores is indicative of the relative quantities of mHTT.
In general, EC50 refers to the concentration at which the effect is half-maximal. A higher EC50 goes with weaker potency. The compound `Cc1cn2nc(-c3cc(=O)n4nc(C5CCNC6(CC6)C5)sc4n3)cc(C)c2n1` (stereo not drawn) [Example 7, 2-(4-azaspiro[2.5]octan-7-yl)-7-(2,8-dimethylimidazo[1,2-b]pyridazin-6-yl)-[1,3,4]thiadiazolo[3,2-a]pyrimidin-5-one] yielded a half-maximal effective concentration (EC50) of 302 nM. Compound `Cc1cn2nc(-c3cc(=O)n4nc(C5(F)CCNCC5)sc4n3)cc(C)c2n1` [Example 8, 7-(2,8-dimethylimidazo[1,2-b]pyridazin-6-yl)-2-(4-fluoro-4-piperidyl)-[1,3,4]thiadiazolo[3,2-a]pyrimidin-5-one] showed an EC50 of 315 nM. The result for `Cc1cn2nc(-c3cc(=O)n4nc(C5CCNC5)sc4n3)cc(C)c2n1` (stereo not drawn) [Example 10, 7-(2,8-dimethylimidazo[1,2-b]pyridazin-6-yl)-2-pyrrolidin-3-yl-[1,3,4]thiadiazolo[3,2-a]pyrimidin-5-one] reads 5220 nM; that for `Cc1cn2nc(-c3cc(=O)n4nc(C5CCNCC5)sc4n3)cc(C(F)(F)F)c2n1` [Example 9, 7-[2-methyl-8-(trifluoromethyl)imidazo[1,2-b]pyridazin-6-yl]-2-(4-piperidyl)-[1,3,4]thiadiazolo[3,2-a]pyrimidin-5-one], 700 nM; that for `Cc1cn2nc(-c3cc(=O)n4nc(C5CCNCC5)sc4n3)cc(C)c2n1` [Example 2, 7-(2,8-dimethylimidazo[1,2-b]pyridazin-6-yl)-2-(4-piperidyl)-[1,3,4]thiadiazolo[3,2-a]pyrimidin-5-one], 196 nM. To `Cc1cn2nc(-c3cc(=O)n4nc(N5CCNC6(CC6)C5)sc4n3)cc(C)c2n1` [Example 6, 2-(4,7-diazaspiro[2.5]octan-7-yl)-7-(2,8-dimethylimidazo[1,2-b]pyridazin-6-yl)-[1,3,4]thiadiazolo[3,2-a]pyrimidin-5-one] belongs 5840 nM; to `Cc1cn2nc(-c3cc(=O)n4nc(N5C[C@@H](C)N[C@@H](C)C5)sc4n3)cc(C)c2n1` [Example 4, 7-(2,8-dimethylimidazo[1,2-b]pyridazin-6-yl)-2-[(3R,5S)-3,5-dimethylpiperazin-1-yl]-[1,3,4]thiadiazolo[3,2-a]pyrimidin-5-one], 2040 nM.

In the case of `Cc1cn2nc(-c3cc(=O)n4nc(N5CCNCC5)sc4n3)cc(C)c2n1` [Example 1, 7-(2,8-dimethylimidazo[1,2-b]pyridazin-6-yl)-2-piperazino-[1,3,4]thiadiazolo[3,2-a]pyrimidin-5-one], the concentration giving a half-maximal response (EC50) worked out at 821 nM. In turn, `Cc1cn2cc(-c3cc(=O)n4nc(C5CCNCC5)sc4n3)cc(F)c2n1` [Example 3, 7-(8-fluoro-2-methyl-imidazo[1,2-a]pyridin-6-yl)-2-(4-piperidyl)-[1,3,4]thiadiazolo[3,2-a]pyrimidin-5-one] had a half-maximal effective concentration (EC50) of 7400 nM.
